The values below come from patent US7217530B2 (priority 2002, dated 2007).

The target in data set [1] is recombinant PrP protein (recPrP) (Homo sapiens, UniProt P04156). The format is physicochemical.

As for “p-sulfonato-3,7-(2-carboxy-methyloxy)-calix-[6]-arene [AML1]”, the “dilution up to which detection of PrP^sc in the sample is possible” value in the data set on PrP^sc is listed as 1/32. Further, in the data set on PrP^sc (immunoblotting, FIG. 1, free AML1), the “detection of the prion increased over detection of the same protein in the absence of AML1” value was “at least four”. In addition, in data set [1] (SPM images, FIGS. 3 and 4), the “structures observed for recPrP films in the presence of AML” value is listed as “modified sequentially”. Moreover, in data set [1] (dried film on mica, SPM), the Average height stood at 217.7, the Maximum height value stood at 448.9, the “RMS (root mean square rugosity)” value is listed as 58.7 nm and the “Ra (average rugosity)” value stood at 48 nm.
